Test results taken from publication PMC9925432, “Thioquinoline derivatives conjugated to thiosemicarbazide as potent tyrosinase inhibitors with anti-melanogenesis properties” (Scientific Reports, 2023).
Read-outs that look alike come from different tables or passages of the source.

How the values were obtained:
[1] = biological target: T1, Mushroom tyrosinase (EC 1.14.18.1) (Agaricus bisporus, UniProt C7FF04); test: Tyrosinase inhibitory assay (colorimetric, diphenolase activity, L-Dopa); format: biochemical; conditions: for IC50: L-Dopa as substrate, means ± RSD of 3 independent experiments
T1 construct: purchased Sigma Chemical Co
Description: Mushroom tyrosinase (EC 1.14.18.1) (Sigma Chemical Co.) was assayed using L-Dopa as the substrate as reported in our previous studies with some modifications[30]–[32]. The enzyme diphenolase activity was monitored spectrophotometrically by observing dopachrome formation at 490 nm. All the test samples were first dissolved in DMSO at 10 mM and diluted to the required concentrations. Initially, in a 96-well microplate, 10 µl of test samples were added to 160 µl of 50 mM phosphate buffer (pH = 6.8) and then 10 µl tyrosinase (500 U mL^−1) was added. After the mixture was pre-incubated at 28 °C for 20 min, 20 µl of L-Dopa solution (7 mM) was added to the mixture. After 10 min incubation absorbance of samples was measured. DMSO without test compounds was used as the control, and kojic acid was used as a positive control. Each assay was conducted as three separate replicates. The inhibitory activity of the tested compounds was expressed as the concentration that inhibited 50% of the enzyme activity (IC50). […]

[2] = MTT assay for cell viability, HEK 293; format: cell-based; conditions: human, HEK 293 cells, 48 h, MTT, mean ± S.E.M.; for viability at 48 h, 16 µM: HEK 293, 16 µM; for viability at 48 h, 32 µM: HEK 293, 32 µM; for viability at 48 h, 64 µM: HEK 293, 64 µM
Description: (§1) The cytotoxic activity of all derivatives against the HEK 293 cell line and 10g against A375 (at a density of 5 × 10^3 cells/ml) using 3-(4,5-dimethylthiazol-2-yl)-2,5- diphenyltetrazolium bromide (MTT) assay were performed. Cells were grown at 37 °C in the presence of CO2 5% in DMEM (Gibco BRL, Grand Island, NY, USA), 10% fetal bovine serum (FBS, Gibco BRL), and penicillin/streptomycin (100 IU/mL and 100 µg/mL, respectively). Next cells were seeded in a 96-well plate and incubated at 37 ^∘C with derivatives at different concentrations for 48 h. Following the treatment, cells were incubated with MTT (0.5 mg/ml) at 37 ^∘C for 3 h. The MTT-containing medium was then removed, and 100 μl of DMSO was added to each well, mixed thoroughly with a 10 min shake to dissolve formazan crystals. The absorbance of each well was measured at 540 nm[33].

HEK 293 cell line = test: MTT assay for cell viability, HEK 293; format: cell-based; conditions: for Cell viability (%): HEK 293, 32 µM, 48 h, MTT, mean ± S.E.M., 32 µM
Description: as §1

mushroom tyrosinase = conditions: cited from earlier work

T1 sequence (C7FF04 1-392 limits assumed): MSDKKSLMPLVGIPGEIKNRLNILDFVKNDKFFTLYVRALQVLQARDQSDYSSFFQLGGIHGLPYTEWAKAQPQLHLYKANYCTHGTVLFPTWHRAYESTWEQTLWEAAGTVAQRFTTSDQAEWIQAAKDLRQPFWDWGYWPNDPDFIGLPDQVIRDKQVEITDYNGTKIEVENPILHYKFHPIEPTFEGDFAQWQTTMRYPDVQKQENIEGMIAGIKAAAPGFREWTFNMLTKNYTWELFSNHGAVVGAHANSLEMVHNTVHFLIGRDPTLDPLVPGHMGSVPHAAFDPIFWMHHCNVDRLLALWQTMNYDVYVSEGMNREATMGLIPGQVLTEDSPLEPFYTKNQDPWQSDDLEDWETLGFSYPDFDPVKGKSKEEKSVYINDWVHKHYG

IC50 [1] [µM]	melting point [°C]	SMILES	viability at 48 h, 16 µM [2] [%]	viability at 48 h, 32 µM [2] [%]	viability at 48 h, 64 µM [2] [%]	Cell viability (%) (HEK 293 cell line)	fold improvement in the potency compared to 10a ([1]; ratio of tyrosinase IC50 values)	IC50 (HEK 293 cell line; Homo sapiens, HEK293, HEK 293, MTT, read-out: IC50 (positive control)) [µM]	IC50 (mushroom tyrosinase; L-Dopa as substrate) [µM]	IC50 (mushroom tyrosinase; L-tyrosine as substrate) [µM]	IC50 (mushroom tyrosinase; tyrosinase) [µM]
85.3	178 to 180	CCc1ccc(NC(=O)CSc2nc3ccccc3cc2/C=N/NC(N)=S)cc1 [Compound 10c, (E)-2-((3-((2-carbamothioylhydrazono)methyl)quinolin-2-yl)thio)-N-(4-ethylphenyl)acetamide]	82.55 ± 0.5	69.3 ± 1.81	58.3 ± 1.03						
101	185 to 187	Cc1cccc(NC(=O)CSc2nc3ccccc3cc2/C=N/NC(N)=S)c1C [Compound 10d, (E)-2-((3-((2-carbamothioylhydrazono)methyl)quinolin-2-yl)thio)-N-(2,3-dimethylphenyl)acetamide]	87.52 ± 0.65	79.12 ± 0.62	71.4 ± 2.97						
47.4	191 to 193	COc1ccc(NC(=O)CSc2nc3ccccc3cc2/C=N/NC(N)=S)cc1 [Compound 10e, (E)-2-((3-((2-carbamothioylhydrazineylidene)methyl)quinolin-2-yl)thio)-N-(4-methoxyphenyl)acetamide]	85.6 ± 1.08	71.2 ± 3.86	62 ± 4.15						
39.8	180 to 182	NC(=S)N/N=C/c1cc2ccccc2nc1SCC(=O)Nc1ccc([N+](=O)[O-])cc1 [Compound 10f, (E)-2-((3-((2-carbamothioylhydrazineylidene)methyl)quinolin-2-yl)thio)-N-(4-nitrophenyl)acetamide]	97.67 ± 0.55	> 85	80 ± 2.05	88.12 ± 4.05					
169	188 to 190	NC(=S)N/N=C/c1cc2ccccc2nc1SCC(=O)Nc1ccc(Cl)cc1Cl [Compound 10h, (E)-2-((3-((2-carbamothioylhydrazono)methyl)quinolin-2-yl)thio)-N-(2,4-dichlorophenyl)acetamide]	96.9 ± 1.59	78.7 ± 2.19	67.9 ± 3.21						
≥ 200		NC(=S)N/N=C/c1cc2ccccc2nc1SCC(=O)Nc1ccccc1Br [Compound 10j, (E)-N-(2-bromophenyl)-2-((3-((2-carbamothioylhydrazono)methyl)quinolin-2-yl)thio)acetamide]	91.2 ± 4.35	> 85	79.9 ± 3.16	88.65 ± 2.31					
78.5	180 to 182	Cc1ccc(CNC(=O)CSc2nc3ccccc3cc2/C=N/NC(N)=S)cc1 [Compound 10l, (E)-2-((3-((2-carbamothioylhydrazineylidene)methyl)quinolin-2-yl)thio)-N-(4-methylbenzyl)acetamide]	75.1 ± 1.99	62.6 ± 1.58	50 ± 0.88						
53.3	186 to 188	NC(=S)N/N=C/c1cc2ccccc2nc1SCC(=O)NCc1ccc(F)cc1 [Compound 10m, (E)-2-((3-((2-carbamothioylhydrazono)methyl)quinolin-2-yl)thio)-N-(4-fluorobenzyl)acetamide]	95.5 ± 2.97	> 85	71.2 ± 5.42	86.44 ± 1.17					

The remaining lines, values behind:

SMILES	IC50 [1] [µM]	melting point [°C]	viability at 48 h, 16 µM [2] [%]	viability at 48 h, 32 µM [2] [%]	viability at 48 h, 64 µM [2] [%]	Cell viability (%) (HEK 293 cell line)	fold improvement in the potency compared to 10a ([1]; ratio of tyrosinase IC50 values)	IC50 (HEK 293 cell line; Homo sapiens, HEK293, HEK 293, MTT, read-out: IC50 (positive control)) [µM]	IC50 (mushroom tyrosinase; L-Dopa as substrate) [µM]	IC50 (mushroom tyrosinase; L-tyrosine as substrate) [µM]	IC50 (mushroom tyrosinase; tyrosinase) [µM]
NC(=S)N/N=C/c1cc2ccccc2nc1SCC(=O)Nc1ccccc1 [Compound 10a, (E)-2-((3-((2-carbamothioylhydrazineylidene)methyl)quinolin-2-yl)thio)-N-phenylacetamide]	155	180 to 182	90.19 ± 0.89	72.2 ± 2.13	65.8 ± 1.99						
Cc1ccc(NC(=O)CSc2nc3ccccc3cc2/C=N/NC(N)=S)cc1 [Compound 10b, (E)-2-((3-((2-carbamothioylhydrazono)methyl)quinolin-2-yl)thio)-N-(p-tolyl)acetamide]	≥ 200	180 to 185	96.2 ± 2.58	81.5 ± 2.91							
NC(=S)N/N=C/c1cc2ccccc2nc1SCC(=O)NCc1ccccc1 [Compound 10k, (E)-N-benzyl-2-((3-((2-carbamothioylhydrazono)methyl)quinolin-2-yl)thio)acetamide]	62	183 to 185	77.3 ± 2.55	65.4 ± 3.49	51.1 ± 1.06		around 2.5 fold				
COc1cccc2c1C(=O)c1c(O)c3c(c(O)c1C2=O)C[C@@](O)(C(=O)CO)C[C@@H]3O[C@H]1C[C@H](N)[C@H](O)[C@H](C)O1 [Doxorubicin, reference compound]								1.3			
NC(=S)N/N=C/c1ccc(OCc2cn(CC(=O)NCc3ccccc3)nn2)cc1 [G]									0.17	0.11	
OC[C@H]1O[C@@H](Oc2ccc(O)cc2)[C@H](O)[C@@H](O)[C@@H]1O [arbutin]											180
